Data as given in ChEMBL document CHEMBL1201862, “PubChem BioAssay data set” (2004).
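Cultured in 96-well plates, cells were exposed to test compound for 48 hours across five concentrations. GI50 marks 50% less growth.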 Calls of active or inactive are those of the source. No stated cut-off is given here; in the data, active = GI50 up to about 1.1 µM and inactive = higher.

Tests used:
Assay in all cases: NCI anticancer screen, dose series, 48 h
U-251 = system: U-251
NCI-H460 = system: NCI-H460
A549 = system: A549
EKVX = system: EKVX
786-0 = system: 786-0
MOLT-4 = system: MOLT-4
RXF 393 = system: RXF 393
SNB-75 = system: SNB-75
HCT-116 = system: HCT-116
ACHN = system: ACHN
HCC 2998 = system: HCC 2998
Hs-578T = system: Hs-578T
SF-268 = system: SF-268
HCT-15 = system: HCT-15
UO-31 = system: UO-31
BT-549 = system: BT-549
MCF7 = system: MCF7
SK-MEL-5 = system: SK-MEL-5
DU-145 = system: DU-145
HL-60 = system: HL-60

Compound | GI50 (U-251) | GI50 (NCI-H460) | GI50 (A549) | GI50 (EKVX) | GI50 (786-0) | GI50 (MOLT-4) | GI50 (RXF 393) | GI50 (SNB-75) | GI50 (HCT-116) | GI50 (ACHN) | GI50 (HCC 2998) | GI50 (Hs-578T) | GI50 (SF-268) | GI50 (HCT-15) | GI50 (UO-31) | GI50 (BT-549) | GI50 (MCF7) | GI50 (SK-MEL-5) | GI50 (DU-145) | GI50 (HL-60)
O=C(CSc1nc2nncc-2c(O)[nH]1)c1ccc(Cl)cc1 | > 100 µM (inactive) | > 100 µM (inactive) | > 100 µM (inactive) | 66.5 µM (inactive) | > 100 µM (inactive) | > 100 µM (inactive) | > 100 µM (inactive) | 0.246 µM (active) | > 100 µM (inactive) | > 100 µM (inactive) | > 100 µM (inactive) | > 100 µM (inactive) | > 100 µM (inactive) | 93.8 µM | > 100 µM (inactive) | > 100 µM (inactive) | > 100 µM (inactive) | > 100 µM (inactive) | – | –
O=C(NC1CCCCC1)c1nn[nH]c1Cl | > 100 µM (inactive) | > 100 µM (inactive) | > 100 µM (inactive) | > 100 µM (inactive) | > 100 µM (inactive) | > 100 µM (inactive) | > 100 µM (inactive) | – | > 100 µM (inactive) | > 100 µM (inactive) | > 100 µM (inactive) | > 100 µM (inactive) | > 100 µM (inactive) | > 100 µM | > 100 µM (inactive) | > 100 µM (inactive) | > 100 µM (inactive) | > 100 µM (inactive) | > 100 µM (inactive) | –
CC1CCC2C(C)C(OC(=O)CCC(=O)O)OC3OC4(C)CCC1C32OO4 (stereo unspecified) | 2.98 µM (inactive) | 7.31 µM (inactive) | 11.9 µM (inactive) | 6.27 µM (inactive) | 15.4 µM (inactive) | 0.346 µM (active) | – | 19.3 µM (inactive) | 0.759 µM (active) | 4.52 µM (inactive) | 5.94 µM (inactive) | 16 µM (inactive) | 16.7 µM (inactive) | 0.388 µM | 1.33 µM (inactive) | 11.2 µM (inactive) | 4.5 µM (inactive) | 1.57 µM (inactive) | 21.4 µM (inactive) | 0.427 µM (active)
O=C(/C=C/c1ccccc1)CCC1C(=O)NC(=O)NC1=O | > 100 µM (inactive) | > 100 µM (inactive) | > 100 µM (inactive) | > 100 µM (inactive) | > 100 µM (inactive) | 35.7 µM (inactive) | – | > 100 µM (inactive) | > 100 µM (inactive) | > 100 µM (inactive) | > 100 µM (inactive) | > 100 µM (inactive) | > 100 µM (inactive) | > 100 µM | > 100 µM (inactive) | > 100 µM (inactive) | > 100 µM (inactive) | > 100 µM (inactive) | > 100 µM (inactive) | > 100 µM (inactive)
CCOC(=O)C1C(c2ccc(OC)cc2)c2c(n[nH]c2O)CC1(O)OCC (stereo unspecified) | > 100 µM (inactive) | > 100 µM (inactive) | > 100 µM (inactive) | > 100 µM (inactive) | > 100 µM (inactive) | > 100 µM (inactive) | – | > 100 µM (inactive) | > 100 µM (inactive) | > 100 µM (inactive) | > 100 µM (inactive) | > 100 µM (inactive) | > 100 µM (inactive) | > 100 µM | > 100 µM (inactive) | > 100 µM (inactive) | > 100 µM (inactive) | > 100 µM (inactive) | > 100 µM (inactive) | > 100 µM (inactive)
Cc1ccc2c(c1)C(=S)N1CSCC1c1nncn1-2 (stereo unspecified) | > 100 µM (inactive) | > 100 µM (inactive) | > 100 µM (inactive) | > 100 µM (inactive) | > 100 µM (inactive) | > 100 µM (inactive) | > 100 µM (inactive) | > 100 µM (inactive) | > 100 µM (inactive) | > 100 µM (inactive) | > 100 µM (inactive) | > 100 µM (inactive) | > 100 µM (inactive) | > 100 µM | > 100 µM (inactive) | > 100 µM (inactive) | > 100 µM (inactive) | > 100 µM (inactive) | > 100 µM (inactive) | –
CC(=N/NC(=S)N1CCCCC1)/C(C)=N\NC(=S)N1CCCCC1 | 1.97 µM (inactive) | 1.74 µM (inactive) | 1.73 µM (inactive) | 1.63 µM (inactive) | 1.76 µM (inactive) | 2.13 µM (inactive) | 1.59 µM (inactive) | 1.45 µM (inactive) | 2.34 µM (inactive) | 1.55 µM (inactive) | 2.12 µM (inactive) | 1.85 µM (inactive) | 1.67 µM (inactive) | 2.34 µM | 1.59 µM (inactive) | 1.92 µM (inactive) | 1.91 µM (inactive) | 1.57 µM (inactive) | 1.61 µM (inactive) | –
